Entries after “also recorded” stand apart in the source; their conditions may differ. Read-outs that look alike come from different tables or passages of the source.
Assays:
[1] = rat, in vivo
Description: Nebulized treprostinil (TRE) solution and treprostinil alkyl ester formulations were administered (at 15 nmol/kg, or […] TRE equivalent) to anaesthetised-ventilated rats (6-hour studies) or to conscious rats by nose-only inhalation (24-hour studies). Blood and lung samples were collected at specified time points. TRE and treprostinil alkyl ester concentrations in blood plasma and lung tissue were measured by HPLC/MS/MS analysis.
Male Sprague Dawley rats were placed in restraining tubes and exposed to nebulised drugs via the Jaeger-NYU Nose-Only Directed-Flow Inhalation Exposure System (CH Technologies, Westwood, N.J.) (FIG. 31). Test articles (6 mL at specific concentration) were nebulised using the Aeroneb nebuliser to deliver a predetermined estimated pulmonary dose. Blood and lung tissue samples were taken at selected times after nebulization of the drugs over a 24-hour period.

EP2 prostanoid receptor = target: T1, EP2 prostanoid receptor (Homo sapiens, UniProt P43116); assay: GloSensor cAMP assay in CHO-K1 cells co-transfected with the EP2 receptor; format: cell-based; conditions: for change of potency with incubation time: cAMP dose response curves, 0.5 hr to 8 hr; for ranking of activity: kinetic profile at 10 μM and 5 μM
T1 construct: host or cells: CHO-K1
T1 sequence (P43116 whole entry): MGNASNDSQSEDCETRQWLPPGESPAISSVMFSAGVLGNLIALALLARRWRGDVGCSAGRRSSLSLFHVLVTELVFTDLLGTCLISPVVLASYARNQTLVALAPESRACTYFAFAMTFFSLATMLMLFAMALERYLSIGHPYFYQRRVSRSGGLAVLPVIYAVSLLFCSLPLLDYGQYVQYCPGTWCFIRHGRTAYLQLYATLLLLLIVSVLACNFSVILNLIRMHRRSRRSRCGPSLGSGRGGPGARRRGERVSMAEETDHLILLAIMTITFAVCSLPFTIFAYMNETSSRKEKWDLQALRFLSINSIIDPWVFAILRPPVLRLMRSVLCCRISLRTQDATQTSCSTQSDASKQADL
Source text: cAMP is a second messenger involved in signal transduction of G-protein coupled receptors (GPCRs) acting through Gα-s and Gα-i proteins. Because the treprostinil receptor is a GPCR, the assay provides an indication of whether the respective prostacyclin compound (or metabolite thereof) binds its receptor and activates the GPCR cell signaling cascade. The GloSensorTM assay harnesses a genetically modified form of firefly luciferase into which a cAMP-binding protein moiety has been inserted. Upon binding of cAMP, a conformational change is induced leading to increased light output. The EP2 prostanoid receptor was cotransfected with the GioSensorm plasmid (Promega) into CHO-K cells as follows. CHO-K cells were harvested when the monoloayer was at 50-90% confluence. First, cells were washed with 5 mL PBS. […] The media was aspirated, and the cell pellet was resuspended in 10 mL of growth media. Cell number was determined using a hemacytometer. […] For small scale transfections of up to 20 wells, the pGLoSensor-22F cAMP plasmid (Promega, Cat #: E2301) (2 apg): […] Cat #: […] P2271) ratio was diluted to a final concentration of 12.6 ng/μL (total plasmid) in Opti-MEM I reduced-serum medium (Life Technologies, Cat #: 1985062). Next, 6 μL of FuGENE HD transfection reagent (Promega, Cat #: E2311) was added to 160 μL of diluted plasmid and mixed carefully by gentle pipetting. The complex was incubated at room temperature for 0 to 10 minutes, and then 8 μL of the complex was added per well of a 96 well white assay plate (Costar, Cat #: 3917) and gently mixed without disturbing the cell monolayer. […] Following incubation, cells were treated and analyzed. For larger scale transfections, the aforementioned steps were scaled up accordingly, and cells were frozen following the last incubation. In order to prepare frozen transfected CHO-K cells, the media was aspirated from culture flasks and cells were rinsed with 5 mL PBS. […] Cell number was determined using a hemacytometer. The media was aspirated, and the cell pellet was resuspended in freezing media (Millipore, cat #: S-002-SF) at 2.5×10^4 cells/vial. Transfected cells were incubated overnight at -80° C. before transfer to liquid nitrogen for long term storage. […] SH30071.03)). […] In preparation for cAMP measurement, the cells were equilibrated with the GloSensor cAMP reagent prior to treatment. For equilibration, the medium was carefully removed from the individual well. Next, 100 μL of equilibration medium ([…] of Glosensor Reagent stock solution (Promega, Cat #: E291), 10% FBS (Hydone, Cat #: SH30071.03) and 88% CO2 independent medium (Life Technologies, Cat #: 18045088)) was added per well of the 96-well plate, and added to the side of each well. The plate was then incubated for 2 hours at room temperature. A first pre-read measurement was taken using a microplate reader (MicroLumat Plus). Plates were incubated for an additional 10 minutes at room temperature, followed by a second pre-read measurement. […] Following treatment, each plate was read every 5 minutes for the duration of the assay using a microplate reader (MicroLumat Plus). In order to determine the fold change in cAMP relative to the control, the transfection efficiency was first determined by dividing the second pre-read measurement by the average of the corresponding pre-read measurements. Next, the normalized relative light units (RLUs) of the samples were determined by dividing the plate read measurement by the transfection efficiency. The fold change in cAMP relative to the control was then determined by dividing the normalized RLU of the samples by the normalized RLU of the control. The cAMP assay was validated using free treprostinil. […] Luminescence was then measured at room temperature. […] Nebulizer Aeroneb Pro (Aerogen) was used to nebulize treprostinil derivative compositions. Desired volume of the formulation (usually 3 mL) was loaded to the mesh head of the nebulizer. […]

[2] = Particle size characterization of treprostinil compositions (QELS); format: physicochemical; conditions: compositions of Table 3, FIG. 2
Description: The compositions in Table 3 were subject to particle size characterization.
All particle size measurements were performed using a Wyatt Technology Mobius™ Zeta Potential/Particle Sizing Instrument in Quasi-elastic light scattering (QELS) mode. Composition aliquots were diluted 10-fold in pre-filtered (0.02 μm pore filter) ultrapure of deionized H2O. Light scattering data was collected and converted into particle size and size distribution using Dynamics® v. 7.2.4 instrument software. Reported average particle size diameter is based on the cumulants model, which mathematically fits particle diffusion constants (determined by the raw scattering intensities of particles in a suspension) to obtain the particle size mean and a distribution of particle sizes around the mean diameter.
Particle uniformity was determined using the software-calculated polydispersity (% PD). Polydispersity is defined as the standard deviation of the particle size distribution from the mean particle size value. % PD normalizes the polydispersity to the mean diameter by dividing by the mean size and multiplying by 100. […]
Dynamics@ polydispersity parameter represents a monodisperse population of particles if % PD ≦15. A calculated % PD ≧57% represents a polydisperse population of particles.

[3] = Tolerability and pharmacokinetics in rats, inhaled C16-TR (T748) for 14-consecutive days; format: in vivo, rat; conditions: inhaled 0.6-18 μg/kg, formulation T748
Description: Body weights were recorded daily and organ weights (lungs, heart, liver) were measured 24 hr. after the last drug dose.

in vivo = conditions: dog
Description: Twelve beagle dogs of either sex were randomly assigned to different inhaled doses of treprostinil in PBS or the compound of Formula (A) wherein R2=
Formulations were nebulized with an Aeroneb nebulizer (MMAD: 2.5-4 μm) delivered into a 500 m1 expansion chamber. Formulations were nebulized for 2 min at ventilator settings of 90 ml/breath, 15 breaths/min (delivered volume=2.7 L) and collected on a filter. Drug amount (μg) on the filter was measured by HPLC to calculate the concentration of drug delivered through the ventilator circuit (μg/L).
(§1) Dosimetry was performed in propofol-anesthetized dogs in which nebulized drugs were introduced into a mixing chamber interposed on the inspiratory limb of a canine respirator. Technical trials were performed before each experiment to measure the concentration of drug (μg/L) delivered for each breath. The inhaled drug dose (μg/kg) was calculated using the formula: Inhaled Drug Dose (μg/kg)=Drug Conc. (μg/L)×Minute Ventilation (L/min.)×Time (min.)/Body Weight (kg). […] Clinical signs were monitored over this 72 hr. period.
(§2) Dosimetry was performed in propofol-anesthetized, artificially ventilated dogs in which nebulized drugs were introduced into a mixing chamber interposed on the inspiratory limb of the respirator. Technical trials were performed before each experiment measuring the concentration of drug (μg/L) per breath, minute ventilation and time required to achieve a targeted pulmonary dose. […] Clinical signs (cough, rapid shallow breathing, emesis and pale gums) were also monitored.

guinea pigs = assay: Cough reflex in guinea pigs; format: in vivo, guinea pig
Description: Aerosols were generated with an Ultra-Neb Pro nebulizer (nebulizer output 0.36 mL/min.) that was mixed with inspired air delivered at a rate of 2 L/min. The PBS or drugs were delivered for 10 min. and the number of coughs recorded during and for 20 min. after the delivery. Coughs were detected by visual observations, plethysmograph recordings and cough sounds.

beagle dogs = assay: Clinical signs in dogs after inhalation
Description: as §1, §2

[4] = Treprostinil pharmacokinetics in anaesthetised, ventilated rats after nebulized dosing; format: in vivo, rat
Description: Male Sprague Dawley rats were anaesthetised and prepared with endotracheal tube for ventilation. The right femoral vein was cannulated to facilitate blood collections. Terminal lung samples were taken for analysis only 6 hours after dosing. […] Systemic blood pressure (mSAP), heart rate (HR), and arterial oxygen saturation (Sa02). Physiologic parameters were measured during normoxia (fraction of inspired oxygen [FrO2]=0.21, SaO2≈90%) and for 2 to 3 hours during hypoxia (FrO2=0.10, SaO2≈50%).

[5] = male, Sprague Dawley, rat, inhaled or intranasal, 6 ug/kg, plasma treprostinil, nebulized, estimated pulmonary dose of 6 μg/kg

Compound: CCCCCCCCCCCCCCOC(=O)COc1cccc2c1C[C@H]1C[C@@H](O)[C@H](CC[C@@H](O)CCCCC)[C@H]1C2 [Compound C14-TR, tetradecyl-treprostinil]
- immediately post dose (IPD) [1]: 0.0104 mg/kg
- change of potency with incubation time (EP2 prostanoid receptor): increases with incubation time
- ranking of activity (EP2 prostanoid receptor): C12-TR>C14-TR>5-nonanyl-TR>C16-TR
- polydispersity (% PD) [2]: around 15 % PD

Compound: CCCCCCCCCCCCCCCCOC(=O)COc1cccc2c1C[C@H]1C[C@@H](O)[C@H](CC[C@@H](O)CCCCC)[C@H]1C2 [Compound C16-TR, hexadecyl-treprostinil]
- change of potency with incubation time (EP2 prostanoid receptor): increases with incubation time
- ranking of activity (EP2 prostanoid receptor): C12-TR>C14-TR>5-nonanyl-TR>C16-TR
- tolerability, body weights and organ weights [3]: no tolerability issues or significant changes (relative to PBS) in body weights and organ weights; also recorded: well tolerated

Compound: CCCCC[C@H](O)CC[C@@H]1[C@H]2Cc3cccc(OCC(=O)O)c3C[C@H]2C[C@H]1O [Treprostinil, (1R,2R,3aS,9aS)-[[2,3,3a,4,9,9a-hexahydro-2-hydroxy-1-[(3S)-3-hydroxyoctyl]-1H-benz[f]inden-5-yl]oxy]acetic acid]
- Cmax (in vivo; beagle, 18 ug/kg): 5.9 ± 0.6 ng/mL
- treprostinil plasma Cmax, fold higher than with T623 at similar inhaled doses (in vivo; both, beagle): 15-20 fold
- Cmax (in vivo; both, beagle, inhaled or intranasal, 5 ug/kg): 2.7 ng/mL
- Cmax (in vivo; both, beagle, inhaled or intranasal, 16 ug/kg): 5.9 ng/mL
- period over which plasma levels of treprostinil were sustained (in vivo): disappeared within a few hours
- exposure concentration that consistently evokes cough (guinea pigs; aerosol 1-300 μg/ml): ≥ 30 µg/mL
- cough bouts (guinea pigs; nebulized concentration of 30 μg/mL): 1-4
- guinea pigs with cough (guinea pigs; nebulized concentration of 30 μg/mL, 10 min. exposure): 7 of 7
- total number of coughs (guinea pigs; nebulized concentration of 30 μg/mL, average): 36±9 coughs
- respiratory irritation (coughing, rapid shallow breathing) (beagle dogs; T623 inhaled doses as high as 46 μg/kg, treprostinil 5 and 16 μg/kg): present during the recovery period
- adverse clinical signs (beagle dogs; targeted dose of 18 μg/kg): Adverse clinical signs were seen
- cAMP levels sustained for (EP2 prostanoid receptor; 10 μM, FIG. 3A): not exhibited
- EC50 (EP2 prostanoid receptor; 4.5 hr incubation time, read-out: EC50 (μM) 4.5 hr): 0.2 µM
- EC50 (EP2 prostanoid receptor; 6.0 hr incubation time, read-out: EC50 (μM) 6.0 hr): 0.29 µM
- EC50 (EP2 prostanoid receptor; 8.0 hr incubation time, read-out: EC50 (μM) 8.0 hr): 0.44 µM
- EC50 (EP2 prostanoid receptor; EC50 (μM) 0.5 hr, 0.5 hr incubation time): 0.18 µM
- EC50 (EP2 prostanoid receptor; EC50 (μM) 1.0 hr, 1.0 hr incubation time): 0.28 µM
- EC50 (EP2 prostanoid receptor; EC50 (μM) 2.0 hr, 2.0 hr incubation time): 0.15 µM
- EC50 (EP2 prostanoid receptor; EC50 (μM) 3.0 hr, 3.0 hr incubation time): 0.16 µM
- EC50 (EP2 prostanoid receptor; EC50 (μM) 4.0 hr, 4.0 hr incubation time): 0.19 µM
- EC50 (EP2 prostanoid receptor; EC50 (μM) 5.0 hr, 5.0 hr incubation time): 0.26 µM
- EC50 (EP2 prostanoid receptor; EC50 (μM) 7.0 hr, 7.0 hr incubation time): 0.46 µM
- Max cAMP level (Fold) (EP2 prostanoid receptor; Table 4, compositions of FIGS. 3A-3C (10 μM, 1 μM, 0.1 μM), 8 hours time course): ~16 Fold
- Max cAMP level (Fold) (EP2 prostanoid receptor; Table 5, 5 μM, FIG. 4, 8 hours time course): ~14 Fold
- Max cAMP level (Fold) (EP2 prostanoid receptor; Table 6, effect of nebulization, head (5 μM), FIG. 6): ~15 Fold
- change of potency with incubation time (EP2 prostanoid receptor): potency decreases with increasing incubation time
- time by which measurable levels of TRE were no longer seen in the lungs [4]: < 6 h
- time up to which measurable levels of TRE were seen in blood plasma [4]: ≤ 4 h
- AUC(0-t) [4, 5]: 2.13 ng·h/mL
- Cmax [4, 5]: 3.37 ng/mL
- Tmax [4, 5]: 3 min
- Cmax ([4]; male, Sprague Dawley, rat, inhaled, 6 ug/kg, plasma treprostinil, nebulized, estimated pulmonary dose of 6 μg/kg): 3.5 ng/mL

Compound: treprostinil decyl ester [Compound C10-TR]
- duration of cAMP levels (EP2 prostanoid receptor; 5 μM, FIG. 4 and FIG. 5): sustained significantly longer than free treprostinil
- cAMP levels compared with free treprostinil (EP2 prostanoid receptor; 10 μM, FIG. 3A): equivalent to free treprostinil
- cAMP levels sustained for (EP2 prostanoid receptor; 10 μM, FIG. 3A): at least 6 hours
- cAMP response compared with free treprostinil (EP2 prostanoid receptor; compositions, 5 μM, FIG. 4): greater than or equivalent to the response induced by free treprostinil
- cAMP response levels (EP2 prostanoid receptor; unformulated compounds, 5 μM, FIG. 5): equivalent to free treprostinil
- polydispersity (% PD) [2]: around 15 % PD
